{"source": "the NIST ThermoML archive (doi:10.1016/j.fluid.2013.07.010)", "key": {"[1]": {"conditions": "Crystal; DTA"}, "[2]": {"experiment": "Molar enthalpy of transition or fusion", "conditions": "Crystal; DSC"}}, "note": "± gives the expanded uncertainty stated by the source."}
{"smiles": "Nc1ccc(Oc2ccc(N)cc2)cc1", "note": "[4,4'-diaminodiphenyl ether]", "values": [{"measurement": "Normal melting temperature", "setting": "[1]", "value": "189.52 ± 0.39", "unit": "°C"}, {"measurement": "Molar enthalpy of transition or fusion", "setting": "[2]", "value": "9.05 ± 0.406", "unit": "kcal/mol"}]}
